Laboratory results as given in US20200237871A1, “METHODS FOR MITIGATING LIVER INJURY AND PROMOTING LIVER HYPERTROPHY, REGENERATION AND CELL ENGRAFTMENT IN CONJUNCTION WITH RADIATION AND/OR RADIOMIMETIC TREATMENTS” (Janssen Pharmaceutica NV, priority 2019, published 2020).

How the values were obtained:
C57BL6 male mice = assay: Volume of untreated (non-irradiated) caudate lobe after partial hepatic irradiation (Example 1); format: in vivo, mouse; settings: 50 Gy to median lobe; 300 μg/kg sc 10 minutes after irradiation; one month after HIR; n=4 per group; p-value <0.00932
Procedure: 8-12-week-old C57BL6 male mice were housed in the Institute for Animal Studies at Albert Einstein College of Medicine and fed regular chow. Animals were weighed in the beginning of the experiment and before tissue collection. All experiments were performed to according to protocols approved by Institutional Animal Care and Use Committee at Albert Einstein College of Medicine.
(§1) Image-guided external beam irradiation was performed using a small animal radiation research platform (SARRP, Xstrahl Inc., Suwanee, Ga.). Mice were given gastrografin contrast through gavage to improve visualization of the gastrointestinal (GI) tract. After approximately 2 minutes, mice were positioned on a tubular couch and anesthetized with ˜2% Isofluorane (Isothesia, USP) in 2 L/min pure oxygen. A cone-beam computed tomography (CBCT) scan was acquired and a treatment plan irradiating the median lobe and right lobe was generated using the MuriPlan software. To minimize toxicity, irradiation was performed using 2 parallel opposed fields. […]
With fixed physiologic organ size, non-irradiated liver undergoes hypertrophy in effort to compensate for the irradiated atrophic lobe. The volume of the caudate lobe was measured as a non-irradiated lobe in this experiment.

DPPIV−/− knockout mice = assay: Relative change of dissected liver lobe size after hepatic irradiation (Example 2); format: in vivo, mouse
Procedure: 8-12-week-old male and female Di-peptyl peptidase IV (DPPIV) −/− knockout mice and 8-12-week-old male and female C57Bl6 mice were used in this study. Animals were weighed in the beginning of the experiment and before tissue collection. All animals were housed in the Institute for Animal Studies at Albert Einstein College of medicine and fed regular rodent chow. All experiments were performed to according to protocols approved by Institutional Animal Care and Use Committee at Albert Einstein College of Medicine. Animals were made cirrhotic using CCl4 administration (intraperitoneal [IP] injections twice a week for at least 11 weeks).
as §1, with “software.” for “software. To minimize toxicity, irradiation was performed using 2 parallel opposed fields.”

In the case of “methoxypolyethyleneglycol20000-propionyl-L-Isoleucyl-L-Glutamyl-Glycyl-L-Prolyl-L-Threonyl-L-Leucyl-L-Arginyl-L-Glutaminyl-L-2-Naphthylalanyl-L-Leucyl-L-Alanyl-L-Alanyl-L-Arginyl-Sarcosyl-Ne-(methoxypolyethyleneglycol20000-propionyl-L-Isoleucyl-L-Glutamyl-Glycyl-L-Prolyl-L-Threonyl-L-Leucyl-L-Arginyl-L-Glutaminyl-L-2-Naphthyl alanyl-L-Leucyl-L-Alanyl-L-Alanyl-L-Arginyl-Sarcosyl-)-Lysinamide [RWJ-800088]”, the “non-irradiated caudate lobe size, HIR+TPOm vs. HIR+saline” value (C57BL6 male mice) is reported as “significant increase”, the “volume of the non-irradiated left lobe” value (DPPIV−/− knockout mice; 2-months post-HIR, HIR then LSECs+/−RWJ-800088 at 24-hours post-HIR) is reported as “trend for an increase” and the “size of the irradiated lobes (median and right)” value (DPPIV−/− knockout mice; RWJ-800088 and HIR only) is reported as “trend for a reduction”.
